Measured values reported in patent US20230021483A1, “[…] […] METHOD AND CLASSIFICATION OF PHARMACEUTICAL COMPONENTS BY USING TRANSCRIPTOMES” (National Institutes of Biomedical Innovation, Health and …, priority 2016, published 2023).

Key:
[1] = system: inguinal lymph nodes (LN); assay: Whole organ transcriptome (GeneChip microarray) of draining inguinal lymph nodes 6 h after adjuvant administration: sDEGs, gene modules, hierarchical clustering; format: in vivo, C57BL/6 mice; as to adjuvant group (cluster) in LN: key: G1 (interferon signaling); G2 (metabolism of lipids and lipoproteins); G3 (response to stress); G4 (response to wounding); G5 (phosphate-containing compound metabolic process); G6 (phagosome)
[2] = system: preferentially upregulated genes in LV, SP, LN; assay: Z-score-based differential gene expression analysis (adjuvant group- or adjuvant-associated genes, 40 module mapping, TargetMine annotation); format: in vivo, C57BL/6 mice; set-up: key to z sum, 1458589_at ---: sum of the per-gene fold-change z-scores of the triplicate samples; conditions: ID
Summary of the method: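 Gene groups for each organ were built from combined z-score cutoffs across adjuvants, ranging from z>1 to z>3. Scores came from fold changes standardized per gene over the whole organ data set, with the three replicate z-scores added per adjuvant; sums above 3 marked preferential expression.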

SMILES: Nc1nc2c(ncn2[C@@H]2O[C@@H]3COP(=O)(O)O[C@H]4[C@@H](O)[C@H](n5cnc6c(N)ncnc65)O[C@@H]4COP(=O)(O)O[C@@H]2[C@@H]3O)c(=O)[nH]1 [cGAMP, Cyclic [G(2′,5′)pA(3′,5′)p]]
- module M40^LN (immune system process; dendritic cells, macrophages, neutrophils, stromal cells) ([1]; LN, 6 h): strongly induced
- adjuvant group (cluster) in LN ([1]; hierarchical clustering, lymph node): G1
- Number of gene probes with statistically significant changes (sDEGs), LN, Down ([1]; i.d. administration, lymph node, fold change <0.667, p<0.01, customized PA call=1, 6 h after adjuvant): 255
- Number of gene probes with statistically significant changes (sDEGs), LN, Up ([1]; i.d. administration, lymph node, fold change >1.5, p<0.01, customized PA call=1, 6 h after adjuvant): 1135
- z sum, 1428027_at LOC100653389 ([2]; LN, Modules 26): −1.72
- z sum, 1419721_at Niacr1 ([2]; LN, Modules 27): −2.05
- z sum, 1418424_at Tnfaip6 ([2]; LN, Modules 29): −2.05
- z sum, 1419534_at Olr1 ([2]; LN, Modules 29): −2.35
- z sum, 1421457_a_at Samsn1 ([2]; LN, Modules 29): −1.88
- z sum, 1422305_at Ifnb1 ([2]; LN, Modules 29): −1.97
- z sum, 1423028_at Ifna2 ([2]; LN, Modules 29): −1.92
- z sum, 1425837_a_at Ccrn4l ([2]; LN, Modules 29): −2.11
- z sum, 1436387_at C330006P03Rik///Homer1 ([2]; LN, Modules 29): −1.73
- z sum, 1439349_at Sbno2 ([2]; LN, Modules 29): −2.1
- z sum, 1444010_at Eif4e ([2]; LN, Modules 29): −1.99
- z sum, 1448325_at Ppp1r15a ([2]; LN, Modules 29): −2.32
- z sum, 1449311_at Bach1 ([2]; LN, Modules 29): −1.95
- z sum, 1450297_at Il6 ([2]; LN, Modules 29): −2.07
- z sum, 1455197_at Rnd1 ([2]; LN, Modules 29): −2.12
- z sum, 1455899_x_at Socs3 ([2]; LN, Modules 29): −2.14
- z sum, 1417252_at Ptgs2 ([2]; LN, Modules 34): −2.41
- z sum, 1417263_at Ptgs2 ([2]; LN, Modules 34): −2.18
- z sum, 1419132_at Tfr2 ([2]; LN, Modules 34): −1.86
- z sum, 1421473_at Il1a ([2]; LN, Modules 34): −2.25
- z sum, 1439981_at Tespa1 ([2]; LN, Modules 35): −2.15
- z sum, 1441843_s_at 5230400M03Rik ([2]; LN, Modules 35): −1.71
- z sum, 1442556_at --- ([2]; LN, Modules 35): −1.95
- z sum, 1443414_at C78513 ([2]; LN, Modules 35): −1.91
- z sum, 1444598_at --- ([2]; LN, Modules 35): −1.93
- z sum, 1445534_at --- ([2]; LN, Modules 35): −1.93
- z sum, 1446245_at --- ([2]; LN, Modules 35): −1.58
- z sum, 1457944_at --- ([2]; LN, Modules 35): −1.78
- z sum, 1458376_at B930025B16Rik ([2]; LN, Modules 35): −1.85
- z sum, 1459144_at --- ([2]; LN, Modules 35): −1.91
- z sum, 1425687_at Cflar ([2]; LN, Modules 36): −2.21
- z sum, 1427736_a_at Ccrl2 ([2]; LN, Modules 36): −1.74
- z sum, 1449169_at Has2 ([2]; LN, Modules 36): −1.67
- z sum, 1453636_at Pcgf5 ([2]; LN, Modules 36): −1.86
- z sum, 1457888_at --- ([2]; LN, Modules 36): −1.91
- z sum, 1419508_at Ripk1 ([2]; LN, Modules 37): −1.9
- z sum, 1421578_at Ccl4 ([2]; LN, Modules 37): −2.14
- z sum, 1421679_a_at Cdkn1a ([2]; LN, Modules 37): −1.99
- z sum, 1424638_at Cdkn1a ([2]; LN, Modules 37): −2.22
- z sum, 1433508_at Klf6 ([2]; LN, Modules 37): −2.41
- z sum, 1434350_at Csrnp1 ([2]; LN, Modules 37): −1.97
- z sum, 1439680_at Tnfsf10 ([2]; LN, Modules 37): −1.65
- z sum, 1448724_at Cish ([2]; LN, Modules 37): −2.38
- z sum, 1451340_at Arid5a ([2]; LN, Modules 37): −1.67
- z sum, 1453851_a_at Gadd45g ([2]; LN, Modules 37): −1.96
- z sum, 1457404_at Nfkbiz ([2]; LN, Modules 37): −1.92
- z sum, 1458589_at --- ([2]; LN, Modules 37): −2.36
- z sum, 1422054_a_at 5kil ([2]; LN, Modules 40): −2.23
- z sum, 1428735_at Cd69 ([2]; LN, Modules 40): −1.52
- Adar 1425405_a_at (Group G1, Modules 20) ([2]; LV, sample x1): 2.95
- Adar 1434268_at (Group G1, Modules 20) ([2]; LV, sample x1): 2.22
- Ddx58 1436562_at (Group G1, Modules 20) ([2]; LV, sample x1): 2.04
- Ddx58 1456890_at (Group G1, Modules 20) ([2]; LV, sample x1): 2.26
- Eif2ak2 1422005_at (Group G1, Modules 20) ([2]; LV, sample x1): 3.11
- G3bp2 1421323_a_at (Group G1, Modules 20) ([2]; LV, sample x1): 3.19
- Gm9706///Isg15 1431591_s_at (Group G1, Modules 20) ([2]; LV, sample x1): 2.13
- H2-T10///H2-T22///H2-T9 1449875_s_at (Group G1, Modules 20) ([2]; LV, sample x1): 2.29
- Ifih1 1426276_at (Group G1, Modules 20) ([2]; LV, sample x1): 1.73
- Ifit1 1450783_at (Group G1, Modules 20) ([2]; LV, sample x1): 2.75
- Ifit3 1449025_at (Group G1, Modules 20) ([2]; LV, sample x1): 2.13
- Irf7 1417244_a_at (Group G1, Modules 20) ([2]; LV, sample x1): 1.6
- Irgm1 1418825_at (Group G1, Modules 20) ([2]; LV, sample x1): 2.25
- Mndal 1426906_at (Group G1, Modules 20) ([2]; LV, sample x1): 2.08
- Pml 1448757_at (Group G1, Modules 20) ([2]; LV, sample x1): 2.13
- Pml 1456103_at (Group G1, Modules 20) ([2]; LV, sample x1): 1.62
